Reference: US20250092065A1, “2-(INDAZOL-5-YL)-6-(PIPERIDIN-4-YL)-1,7-NAPHTHYRIDINE DERIVATIVES AND RELATED COMPOUNDS AS MODULATORS FOR SPLICING NUCLEIC ACIDS AND FOR THE TREATMENT OF PROLIFERATIVE DISEASES” (REMIX THERAPEUTICS INC., priority 2022, published 2025)
Counter-ions that a name gives are not always drawn. Like-named read-outs stand apart in the source and are kept apart here.

Columns and labels:
HTT mRNA = assay: RT-qPCR splicing assay, HTT mRNA canonical (CJ) and alternative (AJ) junction; type: cell-based, human; settings: Homo sapiens; for AC50: HTT alternative junction mRNA increase, read-out: HTT AJ (increase in alternative junction mRNA, AC50)
Procedure, shortened: (§1)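 Junction-specific RT-qPCR read-out: CJ and AJ isoform levels, housekeeper-normalized (GAPDH/GUSB/PPIA), ΔΔCt vs DMSO, converted to RQ then % response. Cells: A673 (DMEM/10% FBS, adhered 24 h) or K562 (IMDM/10% FBS). Compound 11-pt 3-fold, top 10 uM, 24 h, 37 °C.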

MYB mRNA = assay: RT-qPCR splicing assay, MYB mRNA canonical (CJ) and alternative (AJ) junction; type: cell-based, human; settings: Homo sapiens; for AC50: MYB alternative junction mRNA increase, read-out: MYB AJ (increase in alternative junction mRNA, AC50)
Procedure, shortened: as §1

SMN2 mRNA = assay: RT-qPCR splicing assay, SMN2 mRNA; type: cell-based, human; settings: Homo sapiens, canonical junction qPCR panel, Table 4; read-out: SMN2 IC50 (decrease in CJ mRNA levels)
Procedure, shortened: as §1

Target C = assay: RT-qPCR canonical junction panel assay, Target C mRNA; type: cell-based; settings: Table 4, read-out: Target C IC50 (decrease in CJ mRNA levels)
Procedure, shortened: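 IC50 is the concentration giving 50% CJ decrease, from a 4-parameter logistic fit of percent response; response derived from ΔΔCt against housekeeper and DMSO over a fixed ΔCt window, with canonical exon-junction qPCR in compound-treated K562 or A673 cells.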

K562 cells = assay: Cell Titer Glo 2.0 cell viability (toxicity) assay, K562; settings: 500 cells/well, 72 hours
[1] = RT-qPCR, HTT canonical junction mRNA decrease, read-out: HTT CJ (decrease in canonical junction mRNA, IC50)
[2] = canonical junction qPCR panel, Table 4, read-out: HTT IC50 (decrease in CJ mRNA levels)
[3] = RT-qPCR, MYB canonical junction mRNA decrease, read-out: MYB CJ (decrease in canonical junction mRNA, IC50)
[4] = canonical junction qPCR panel, Table 4, read-out: MYB IC50 (decrease in CJ mRNA levels)

Compound | AC50 (HTT mRNA; RT-qPCR) [nM] | IC50 (HTT mRNA; [1]) [nM] | IC50 (HTT mRNA; [2]) [nM] | AC50 (MYB mRNA; RT-qPCR) [nM] | IC50 (MYB mRNA; [3]) [nM] | IC50 (MYB mRNA; [4]) [nM] | IC50 (SMN2 mRNA) [nM] | IC50 (Target C) [nM] | Effect of Exemplary Compounds on Cell Viability, K562 (K562 cells)
Cc1c(O)c(-c2nc(C(N)=O)c3cc(N4C[C@@H](C)N[C@@H](C)C4)ccc3n2)cc2cn(C)nc12 [Compound 784, 6-[(3R,5S)-3,5-dimethylpiperazin-1-yl]-2-(6-hydroxy-2,7-dimethylindazol-5-yl)quinazoline-4-carboxamide] | > 10000 | 1000 to 10000 | 1000 to 10000 | < 100 | < 100 | < 100 | < 100 | > 10000 | A (A represents <100 nM)
C[C@@H]1CN(c2ccc3nc(-c4cc5cn(C)nc5cc4O)nc(C(N)=O)c3c2)C[C@H](C)N1 [Compound 785, 6-((3R,5S)-3,5-dimethylpiperazin-1-yl)-2-(6-hydroxy-2-methyl-2H-indazol-5-yl)quinazoline-4-carboxamide 2,2,2-trifluoroacetate] | > 10000 | 1000 to 10000 | 1000 to 10000 | 100 to 1000 | < 100 | < 100 | < 100 | 1000 to 10000 | A (A represents <100 nM)
Cc1c(O)c(-c2ncc3cc(N4CCC(N5CCC5)CC4)ccc3n2)cc2cn(C)nc12 [Compound 786, 5-{6-[4-(azetidin-1-yl)piperidin-1-yl]quinazolin-2-yl}-2,7-dimethylindazol-6-ol] | 100 to 1000 | 100 to 1000 | 100 to 1000 | 100 to 1000 | 100 to 1000 | 100 to 1000 | < 100 | 100 to 1000 | B (B represents 100-1000 nM)
Cn1cc2cc(-c3ncc4cc(N5CCC(N6CCC6)CC5)ccc4n3)cc(F)c2n1 [Compound 787, 6-[4-(azetidin-1-yl)piperidin-1-yl]-2-(7-fluoro-2-methylindazol-5-yl)quinazoline] | 1000 to 10000 | 1000 to 10000 | 1000 to 10000 | 100 to 1000 | 100 to 1000 | 100 to 1000 | < 100 | 1000 to 10000 | B (B represents 100-1000 nM)
Cc1nc(-c2cc(F)c3nn(C)cc3c2)nc2ccc(N3CCC(N4CCC4)CC3)cc12 [Compound 788, 6-[4-(azetidin-1-yl)piperidin-1-yl]-2-(7-fluoro-2-methylindazol-5-yl)-4-methylquinazoline] | 1000 to 10000 | 1000 to 10000 | 1000 to 10000 | 100 to 1000 | 1000 to 10000 | 1000 to 10000 | < 100 | 1000 to 10000 | B (B represents 100-1000 nM)
COc1cc(-c2ncc3cc(N4C[C@H](C)N[C@@H](C)C4)ccc3n2)cn2cc(C)nc12 [Compound 816] | 1000 to 10000 | 1000 to 10000 | 1000 to 10000 | < 100 | 100 to 1000 | 100 to 1000 | < 100 | > 10000 | B (B represents 100-1000 nM)
Cc1cn2cc(-c3ncc4cc(N5C[C@H](C)N[C@@H](C)C5)ccc4n3)cc(C#N)c2n1 [Compound 817] | 1000 to 10000 | 100 to 1000 | 100 to 1000 | < 100 | < 100 | < 100 | < 100 | 1000 to 10000 | B (B represents 100-1000 nM)
Cc1nc2c(F)cc(-c3ncc4cc(N5C[C@H](C)N[C@@H](C)C5)ccc4n3)cn2n1 [Compound 819, 6-[(3S,5S)-3,5-dimethylpiperazin-1-yl]-2-{8-fluoro-2-methyl-[1,2,4]triazolo[1,5-a]pyridin-6-yl}quinazoline hydrochloride] | 1000 to 10000 | 1000 to 10000 | 1000 to 10000 | 100 to 1000 | 100 to 1000 | 100 to 1000 | < 100 | 1000 to 10000 | B (B represents 100-1000 nM)
CCc1cn2cc(-c3ncc4cc(N5C[C@H](C)N[C@@H](C)C5)ccc4n3)cc(F)c2n1 [Compound 821] | > 10000 | > 10000 | > 10000 | > 10000 | 1000 to 10000 | 1000 to 10000 | 100 to 1000 | > 10000 | C (C represents 1000-9999 nM)
COc1nc(-c2ncc3cc(N4C[C@H](C)N[C@@H](C)C4)ccc3n2)cn2cc(C)nc12 [Compound 823] | 1000 to 10000 | 1000 to 10000 | 1000 to 10000 | 100 to 1000 | 100 to 1000 | 100 to 1000 | < 100 | > 10000 | B (B represents 100-1000 nM)
Cc1cn2cc(-c3ncc4cc(N5C[C@H](C)N(C)[C@@H](C)C5)ccc4n3)cc(F)c2n1 [Compound 824] | 1000 to 10000 | 100 to 1000 | 100 to 1000 | 100 to 1000 | 100 to 1000 | 100 to 1000 | < 100 | 1000 to 10000 | B (B represents 100-1000 nM)
Cc1nc2c(F)cc(-c3ncc4cc(N5C[C@@H](C)N[C@@H](C)C5)ccc4n3)cn2n1 [Compound 825, 6-[(3R,5S)-3,5-dimethylpiperazin-1-yl]-2-{8-fluoro-2-methyl-[1,2,4]triazolo[1,5-a]pyridin-6-yl}quinazoline] | 1000 to 10000 | 1000 to 10000 | 1000 to 10000 | 100 to 1000 | 100 to 1000 | 100 to 1000 | < 100 | 1000 to 10000 | C (C represents 1000-9999 nM)
Cc1cn2cc(-c3ncc4cc(N5C[C@@H](C)N(C)[C@@H](C)C5)ccc4n3)cc(F)c2n1 [Compound 826, 2-{8-fluoro-2-methylimidazo[1,2-a]pyridin-6-yl}-6-[(3R,5S)-3,4,5-trimethylpiperazin-1-yl]quinazoline] | 1000 to 10000 | 1000 to 10000 | 1000 to 10000 | < 100 | 100 to 1000 | 100 to 1000 | < 100 | 1000 to 10000 | B (B represents 100-1000 nM)
